The text below walks through data of BindingDB's records for doi:10.7270/Q2DZ06SS (Burnham Center For Chemical Genomics, 2011).

This assay addresses T1, BRCA1-associated RING domain protein 1 (Homo sapiens, UniProt Q99728).
T1 sequence (Q99728 whole entry): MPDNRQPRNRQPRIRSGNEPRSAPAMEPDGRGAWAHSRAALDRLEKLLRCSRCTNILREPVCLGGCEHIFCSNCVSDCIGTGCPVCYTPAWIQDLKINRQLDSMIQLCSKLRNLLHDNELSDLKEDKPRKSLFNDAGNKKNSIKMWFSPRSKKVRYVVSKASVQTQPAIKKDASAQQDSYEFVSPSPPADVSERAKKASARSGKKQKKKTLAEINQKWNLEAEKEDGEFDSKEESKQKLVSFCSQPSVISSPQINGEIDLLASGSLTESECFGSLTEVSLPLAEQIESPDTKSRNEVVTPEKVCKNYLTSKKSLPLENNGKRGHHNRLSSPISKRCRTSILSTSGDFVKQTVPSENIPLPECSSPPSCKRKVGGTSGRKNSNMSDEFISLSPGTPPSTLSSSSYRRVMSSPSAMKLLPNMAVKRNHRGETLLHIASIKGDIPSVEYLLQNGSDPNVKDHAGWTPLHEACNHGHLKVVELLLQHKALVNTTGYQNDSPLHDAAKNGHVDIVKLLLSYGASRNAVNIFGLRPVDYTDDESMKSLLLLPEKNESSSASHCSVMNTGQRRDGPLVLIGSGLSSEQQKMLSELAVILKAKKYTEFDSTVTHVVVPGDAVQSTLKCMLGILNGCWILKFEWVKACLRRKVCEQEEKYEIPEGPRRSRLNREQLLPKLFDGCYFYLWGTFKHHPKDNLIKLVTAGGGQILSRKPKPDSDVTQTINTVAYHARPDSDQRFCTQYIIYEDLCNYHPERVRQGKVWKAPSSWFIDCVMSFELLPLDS
Description: Brca1-Bard1 BiLC signal decrease – cell-based, luminescence, counter-screen for Mdm2/MdmX interaction inhibitor project, dose response (AID 504669). (The purpose of a counterscreen is to sort out artefacts and off-target activity.)

For the compound `Cc1cc(N=NC(C)c2ccccc2O)nc(-c2ccccc2O)n1` (stereo unspecified), it took 5.35 µM to reach half-maximal inhibition (IC50). That is a single-digit micromolar value.
